The values that follow are results of earlier work, collected in patent US4775679A, “Certain heterocyclic-ethyl-2,3-dihydrobenzofurans useful as anti-inflammatory agents” (Merck & Co., Inc., priority 1987, dated 1988).

This series has as its system inflammatory responses elicited by topically applied phorbol myristate acetate (PMA) or archidonic acid (AA).

As to `COc1ccc2c(c1)c(CC(=O)O)c(C)n2C(=O)c1ccc(Cl)cc1` [Indomethacin], the “active in this assay (topical mouse ear), previously established” value was “active”.

With `C[C@@H]1C[C@H]2[C@@H]3CCC4=CC(=O)C=C[C@]4(C)[C@@]3(F)[C@@H](O)C[C@]2(C)[C@@]1(O)C(=O)CO` [dexamethasone], the “active in this assay (topical mouse ear), previously established” value is “active”.
